≈ marks a conversion by molar mass, not a printed value. Read-outs that look alike come from different tables or passages of the source.
Key:
[1] = system: A. fumigatus 210; test: Minimum inhibitory concentration, YAG medium; format: cell-based, Aspergillus fumigatus; conditions: banded MIC grade
Procedure, shortened: (§1)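 Broth microdilution in YAG medium (1% glucose, 1% ammonium chloride, 0.5% yeast extract) with spore inocula of 1-2×10^4 cfu/mL and doubling dilutions typically spanning 50-0.05 mg/L. Plates were incubated 24 hrs at 35° C and read by OD 485 nm. MIC is the lowest concentration giving >70% growth inhibition versus drug-free control, in mg/L.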

[2] = system: Aspergillus terreus; test: Minimum inhibitory concentration, YAG medium; format: cell-based; conditions: banded MIC grade
Procedure, shortened: (§2)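 Growth inhibition was read as absorbance at 485 nm after spores of Aspergillus spp. were exposed for 24 hrs at 35° C to doubling dilutions of the compound. Dilutions were made in water starting from a 5 mg/mL DMSO stock, and MIC values were expressed in mg/L.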

[3] = system: Aspergillus niger; test: Minimum inhibitory concentration, YAG medium; format: cell-based; conditions: banded MIC grade
Procedure, shortened: as §2

[4] = system: Aspergillus flavus; test: Minimum inhibitory concentration, YAG medium; format: cell-based; conditions: banded MIC grade
Procedure, shortened: as §2

[5] = system: A. terreus 49; test: Minimum inhibitory concentration, YAG medium; format: cell-based, Aspergillus terreus; conditions: banded MIC grade
Procedure, shortened: as §2

[6] = system: Aspergillus fumigatus; test: Minimum inhibitory concentration, YAG medium; format: cell-based; conditions: banded MIC grade
Procedure, shortened: as §1

[7] = system: C. parapsilosis; test: Minimum inhibitory concentration, RPMI medium; format: cell-based; conditions: banded MIC grade; for MIC: Lodderomyces parapsilosis, RPMI media
Procedure, shortened: (§3)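 Growth inhibition was judged from optical density at 485 nm per well after 24-48 hrs at 35° C. Test compound came from a 5 mg/mL DMSO stock, serially doubled in water before testing in RPMI 1640.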

[8] = system: C. tropicalis; test: Minimum inhibitory concentration, RPMI medium; format: cell-based; conditions: banded MIC grade
Procedure, shortened: as §3

[9] = system: C. albicans; test: Minimum inhibitory concentration, RPMI medium; format: cell-based; conditions: banded MIC grade; for MIC: Candida albicans, RPMI media
Procedure, shortened: as §3

Row | Compound | MIC grade, A. FUMIGATUS 210, YAG media [1] | MIC grade, A. TERREUS, YAG media [2] | MIC grade, A. NIGER, YAG media [3] | MIC grade, A. FLAVUS, YAG media [4] | MIC grade, A. TERREUS 49, YAG media [5] | MIC grade, A. FUMIGATUS, YAG media [6] | MIC grade, C. PARAPSILOSIS, RPMI media [7] | MIC grade, C. TROPICALIS, RPMI media [8] | MIC grade, C. ALBICANS, RPMI media [9] | MIC ([1]; Aspergillus fumigatus, 210, YAG media) | MIC ([2]; Aspergillus terreus, YAG media) | MIC ([3]; Aspergillus niger, YAG media) | MIC ([4]; Aspergillus flavus, YAG media) | MIC ([5]; Aspergillus terreus, 49, YAG media) | MIC ([6]; Aspergillus fumigatus, YAG media) | MIC ([7]; read-out: MIC grade C. PARAPSILOSIS) | MIC ([7]; read-out: MIC grade, C. PARAPSILOSIS, RPMI media) | MIC ([8]; Candida tropicalis, RPMI media) | MIC ([9]; read-out: MIC grade C. ALBICANS) | MIC ([9]; read-out: MIC grade, C. ALBICANS, RPMI media)
1 | NC1=NN=C(CCCOc2ccccc2)CS1 | 4 (4: <0.2 mg/L) | 4 (4: <0.2 mg/L) | 4 (4: <0.2 mg/L) | 4 (4: <0.2 mg/L) | 3 (3: 0.2-1 mg/L) | 4 (4: <0.2 mg/L) | 4 (4: <1 mg/L) | 3 (3: 1-5 mg/L) | 2 (2: 5-20 mg/L) | – | – | – | – | – | – | – | – | – | – | –
2 | NC1=NN=C(CCOCCCc2ccccc2)CS1 | 4 (4: <0.2 mg/L) | 4 (4: <0.2 mg/L) | 4 (4: <0.2 mg/L) | 4 (4: <0.2 mg/L) | 4 (4: <0.2 mg/L) | 4 (4: <0.2 mg/L) | 4 (4: <1 mg/L) | 3 (3: 1-5 mg/L) | 4 (4: <1 mg/L) | – | – | – | – | – | – | – | – | – | – | –
3 | Cc1cc(C)cc(C2=NN=C(N)SC2)c1 | 2 (2: 1-5 mg/L) | 1 (1: ≥5 mg/L) | 2 (2: 1-5 mg/L) | 1 (1: ≥5 mg/L) | 1 (1: ≥5 mg/L) | 1 (1: ≥5 mg/L) | 1 (1: ≥20 mg/L) | 1 (1: ≥20 mg/L) | 1 (1: ≥20 mg/L) | – | – | – | – | – | – | – | – | – | – | –
4 | CN1N=C(N)SC=C1c1ccc(Cl)cc1 [5-(4-chlorophenyl)-4-methyl-1,3,4-thiadiazin-2-amine] | – | – | – | – | – | – | – | – | – | < 0.2 µg/mL | < 0.2 µg/mL | < 0.2 µg/mL | < 0.2 µg/mL | < 0.2 µg/mL | < 0.2 µg/mL | < 1 µg/mL | < 1 µg/mL | 5 to 20 µg/mL (≈ 20.9 to 83.4 µM) | 1 to 5 µg/mL (≈ 4.17 to 20.9 µM) | 1 to 5 µg/mL (≈ 4.17 to 20.9 µM)
5 | COCCCC1=NN=C(N)SC1 | 4 (4: <0.2 mg/L) | 3 (3: 0.2-1 mg/L) | 4 (4: <0.2 mg/L) | 4 (4: <0.2 mg/L) | 4 (4: <0.2 mg/L) | 4 (4: <0.2 mg/L) | 3 (3: 1-5 mg/L) | 2 (2: 5-20 mg/L) | 3 (3: 1-5 mg/L) | – | – | – | – | – | – | – | – | – | – | –
6 | COc1ccc(C2=NN=C(N)SC2)cc1 | 2 (2: 1-5 mg/L) | 3 (3: 0.2-1 mg/L) | 2 (2: 1-5 mg/L) | 2 (2: 1-5 mg/L) | 3 (3: 0.2-1 mg/L) | 2 (2: 1-5 mg/L) | 1 (1: ≥20 mg/L) | 1 (1: ≥20 mg/L) | 1 (1: ≥20 mg/L) | – | – | – | – | – | – | – | – | – | – | –

Source: patent US20180201592A1, “2-AMINO-1,3,4-THIADIAZINE AND 2-AMINO-1,3,4-OXADIAZINE BASED ANTIFUNGAL AGENTS” (F2G Limited, priority 2015, published 2018)
